# Laboratory results taken from ChEMBL document CHEMBL1128153, “Acetylcholinesterase inhibition by alkaloids of the ant's venom Monomorium minutum” (Bioorg Med Chem Lett, 1995).
# Legend:
# [1] = test system: ant; assay: Evaluated for the amount of compound present in ant's venom Monomorium minutum.; format: functional
# [2] = Partition coefficient (logP); format: physicochemical; conditions: octanol/water
# [3] = target: Acetylcholinesterase (Electrophorus electricus, UniProt O42275)
# Sequence of Acetylcholinesterase (O42275 whole entry): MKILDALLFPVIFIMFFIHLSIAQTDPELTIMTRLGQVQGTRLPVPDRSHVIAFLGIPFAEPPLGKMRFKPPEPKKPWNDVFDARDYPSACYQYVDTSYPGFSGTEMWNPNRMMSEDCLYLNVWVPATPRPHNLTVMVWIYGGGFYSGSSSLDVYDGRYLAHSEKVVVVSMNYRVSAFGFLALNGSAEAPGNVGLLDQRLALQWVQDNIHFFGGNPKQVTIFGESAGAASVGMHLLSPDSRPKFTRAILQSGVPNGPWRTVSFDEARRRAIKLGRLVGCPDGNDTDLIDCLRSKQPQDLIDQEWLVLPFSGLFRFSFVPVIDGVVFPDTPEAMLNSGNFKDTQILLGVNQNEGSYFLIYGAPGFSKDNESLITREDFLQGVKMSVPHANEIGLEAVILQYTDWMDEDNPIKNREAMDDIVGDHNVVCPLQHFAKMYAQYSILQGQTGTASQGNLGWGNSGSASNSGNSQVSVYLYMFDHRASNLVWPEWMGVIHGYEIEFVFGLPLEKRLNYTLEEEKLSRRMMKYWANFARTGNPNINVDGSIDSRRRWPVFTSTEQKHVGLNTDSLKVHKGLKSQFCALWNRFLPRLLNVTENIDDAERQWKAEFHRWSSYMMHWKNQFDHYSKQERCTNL
# Description: Tested for in vitro inhibition of acetylcholinesterase
Structure (SMILES),Venom [1] [%],logP [2],Ki [3] [µM]
C=CCCCCC1CCC(CCCCCCCCC)N1 (stereo not drawn),58.7,7.68,1.5
C=CCCCCC1=NC(CCCCCCCCC)CC1 (stereo not drawn),4.4,8.39,5
C=CCCCCCCCC1=NC(CCCCC=C)CC1 (stereo not drawn),0.2,8.02,13
CN(C)C(=O)Oc1cccc([N+](C)(C)C)c1 [NEOSTIGMINE BROMIDE],–,–,1
C=CCCCCCCCC1CCC(CCCCC=C)N1 (stereo not drawn),29.8,7.32,2.5
